# The source made the active and inactive calls. The calls are words filed in the database; no cut-off is given here.
# Test system: PO3
# Test: Antitumor activity in mouse PO3 cells xenografted mouse at 304.5 mg/kg after 31 days
# Type: functional, organism-based
# Parameters: dose 304.5 mg/kg
smiles,measurement,value
CC/C=C/[C@]1(CC)C[C@@H](CC)[C@H](CC(=O)OCC)OO1,Activity,inactive

# — ChEMBL document CHEMBL1150934, “Cyclic polyketide peroxides and acyclic diol analogues from the sponge Plakortis lita” (J Nat Prod, 1998)
